{"source": "patent US9663473B2", "about": "(Actelion Pharmaceuticals Ltd, priority 2013, dated 2017)", "data": [{"molecular_target": "T1, recombinant human ALX receptor (Homo sapiens, UniProt P25090)", "T1 construct": "expressed in transfected cells; host or cells: HEK293 (HEK293-hALXR-Gα16)", "T1 sequence (P25090 1-351)": "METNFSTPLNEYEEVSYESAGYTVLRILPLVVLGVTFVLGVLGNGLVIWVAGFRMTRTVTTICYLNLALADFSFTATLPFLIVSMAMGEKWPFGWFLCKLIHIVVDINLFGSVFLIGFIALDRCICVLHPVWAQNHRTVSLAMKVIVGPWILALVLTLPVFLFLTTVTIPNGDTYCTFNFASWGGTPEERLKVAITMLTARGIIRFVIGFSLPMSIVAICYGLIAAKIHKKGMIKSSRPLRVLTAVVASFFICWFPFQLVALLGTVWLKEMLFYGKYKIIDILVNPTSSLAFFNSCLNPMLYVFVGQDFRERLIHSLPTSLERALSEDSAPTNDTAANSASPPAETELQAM", "assay": "Intracellular calcium measurements (FLIPR), ALX receptor agonistic activity", "format": "cell-based", "settings": "HEK293-hALXR-Gα16 cells, Fluo-4 calcium signal, normalized to WKYMVm 10 nM", "in_short": "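HEK293 cells co-expressing human ALX receptor and Gα16 were loaded with 1 μM Fluo-4 AM for 60 min at 37° C., then exposed to serially diluted compounds on FLIPR Tetra. Peak fluorescence above baseline (ex 488/em 540 nm) was normalized to 10 nM WKYMVm as high control.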", "units": {"EC50": "µM"}, "values": [{"smiles": "CC(F)(F)c1ccc(CC(NC(=O)N[C@H]2CC[C@H](O)CC2)c2nc3ccccc3[nH]2)cc1", "note": "(single isomer, unassigned; ent-1) [Example 394, 1-(1-(1H-Benzo[d]imidazol-2-yl)-2-(4-(1,1-difluoroethyl)phenyl)ethyl)-3-(trans-4-hydroxycyclohexyl)urea (ent-1)]", "EC50": 0.0047}, {"smiles": "COc1ccc(CC(NC(=O)NC23CCC(O)(CC2)CC3)c2nc3ccc(F)cc3[nH]2)c(F)c1", "note": "(stereo not shown) [Example 245, 1-(1-(6-Fluoro-1H-benzo[d]imidazol-2-yl)-2-(2-fluoro-4-methoxyphenyl)ethyl)-3-(4-hydroxybicyclo[2.2.2]octan-1-yl)urea]", "EC50": 0.0041}, {"smiles": "COc1ccc(C[C@@H](NC(=O)N[C@@H]2CCC[C@@H]2O)c2nc3ccccc3[nH]2)cc1", "note": "[Example 21, 1-((R)-1-(1H-Benzo[d]imidazol-2-yl)-2-(4-methoxyphenyl)ethyl)-3-((1R,2S)-2-hydroxycyclopentyl)urea]", "EC50": 0.029}, {"smiles": "CCOC(=O)[C@@H]1CCCC[C@@H]1NC(=O)N[C@H](Cc1ccc(OC)cc1)c1nc2ccccc2[nH]1", "note": "(relative stereo) [Example 28, (1R*,2S*)-Ethyl 2-(3-((R)-1-(1H-benzo[d]imidazol-2-yl)-2-(4-methoxyphenyl)ethyl)ureido)cyclohexanecarboxylate]", "EC50": 0.0092}, {"smiles": "COc1ccc(C[C@@H](NC(=O)N[C@@H](C)c2ccc(OC)cc2)c2nc3ccccc3[nH]2)cc1", "note": "[Example 330, 1-((R)-1-(1H-Benzo[d]imidazol-2-yl)-2-(4-methoxyphenyl)ethyl)-3-((S)-1-(4-methoxyphenyl)ethyl)urea]", "EC50": 0.205}, {"smiles": "COc1ccc(C[C@@H](NC(=O)N[C@H](C)c2ccc(Cl)cc2)c2nc3ccccc3[nH]2)cc1", "note": "[Example 329, 1-((R)-1-(1H-Benzo[d]imidazol-2-yl)-2-(4-methoxyphenyl)ethyl)-3-((R)-1-(4-chlorophenyl)ethyl)urea]", "EC50": 0.285}, {"smiles": "COc1ccc(C[C@@H](NC(=O)N2CCN(C)CC2)c2nc3ccccc3[nH]2)cc1", "note": "[Example 136, (R)—N-(1-(1H-Benzo[d]imidazol-2-yl)-2-(4-methoxyphenyl)ethyl)-4-methylpiperazine-1-carboxamide]", "EC50": 0.387}, {"smiles": "COc1ccc(C[C@@H](NC(=O)NCc2ccn(-c3ccccc3)n2)c2nc3ccccc3[nH]2)cc1", "note": "[Example 284, (R)-1-(1-(1H-Benzo[d]imidazol-2-yl)-2-(4-methoxyphenyl)ethyl)-3-((1-phenyl-1H-pyrazol-3-yl)methyl)urea]", "EC50": 0.353}, {"smiles": "COc1ccc(C[C@@H](NC(=O)NCCc2ccccc2C(F)(F)F)c2nc3ccccc3[nH]2)cc1", "note": "[Example 274, (R)-1-(1-(1H-Benzo[d]imidazol-2-yl)-2-(4-methoxyphenyl)ethyl)-3-(2-(trifluoromethyl)phenethyl)urea]", "EC50": 0.115}, {"smiles": "COc1ccc(CC(NC(=O)N[C@H]2CC[C@](C)(O)CC2)c2nc3ccccc3[nH]2)c(F)c1F", "note": "(mixture of isomers) [Example 252, 1-(1-(1H-Benzo[d]imidazol-2-yl)-2-(2,3-difluoro-4-methoxyphenyl)ethyl)-3-(trans-4-hydroxy-4-methylcyclohexyl)urea]", "EC50": 0.017}, {"smiles": "COc1ccc(C[C@@H](NC(=O)NC2CCN(CCc3ccccc3)CC2)c2nc3ccccc3[nH]2)cc1", "note": "[Example 105, (R)-1-(1-(1H-Benzo[d]imidazol-2-yl)-2-(4-methoxyphenyl)ethyl)-3-(1-phenethylpiperidin-4-yl)urea]", "EC50": 0.014}, {"smiles": "COc1ccc(C[C@@H](NC(=O)N[C@H]2CCNC2)c2nc3ccccc3[nH]2)cc1", "note": "[Example 126, 1-((R)-1-(1H-Benzo[d]imidazol-2-yl)-2-(4-methoxyphenyl)ethyl)-3-((S)-pyrrolidin-3-yl)urea]", "EC50": 0.601}, {"smiles": "COc1ccc(C[C@@H](NC(=O)NC(CN2CCOCC2)c2ccccc2)c2nc3ccccc3[nH]2)cc1", "note": "(stereo partly drawn) [Example 214, 1-((R)-1-(1H-Benzo[d]imidazol-2-yl)-2-(4-methoxyphenyl)ethyl)-3-(2-morpholino-1-phenylethyl)urea]", "EC50": 0.028}, {"smiles": "COc1ccc(C[C@@H](NC(=O)NCc2ccn(CC(F)(F)F)n2)c2nc3ccccc3[nH]2)cc1", "note": "[Example 293, (R)-1-(1-(1H-Benzo[d]imidazol-2-yl)-2-(4-methoxyphenyl)ethyl)-3-((1-(2,2,2-trifluoroethyl)-1H-pyrazol-3-yl)methyl)urea]", "EC50": 0.168}, {"smiles": "COc1ccc(C(C)(C)C(NC(=O)N[C@H]2CC[C@H](O)CC2)c2nc3ccccc3[nH]2)cc1", "note": "(relative stereo) [Example 3, 1-(1-(1H-Benzo[d]imidazol-2-yl)-2-(4-methoxyphenyl)-2-methylpropyl)-3-(trans-4-hydroxycyclohexyl)urea]", "EC50": 0.119}, {"smiles": "COc1ccc(C[C@@H](NC(=O)N[C@@H](C)c2cccc(Cl)c2)c2nc3ccccc3[nH]2)cc1", "note": "[Example 325, 1-((R)-1-(1H-Benzo[d]imidazol-2-yl)-2-(4-methoxyphenyl)ethyl)-3-((S)-1-(3-chlorophenyl)ethyl)urea]", "EC50": 0.186}, {"smiles": "COc1ccc(CC(NC(=O)Nc2cc(C)on2)c2nc3ccccc3[nH]2)cc1", "note": "(stereo not shown) [Example 401, 1-(1-(1H-Benzo[d]imidazol-2-yl)-2-(4-methoxyphenyl)ethyl)-3-(5-methylisoxazol-3-yl)urea]", "EC50": 0.372}, {"smiles": "COc1ccc(C[C@@H](NC(=O)N[C@@H]2CCNC[C@@H]2F)c2nc3ccccc3[nH]2)cc1", "note": "(relative stereo) [Example 164, 1-((R)-1-(1H-Benzo[d]imidazol-2-yl)-2-(4-methoxyphenyl)ethyl)-3-((3S*,4R*)-3-fluoropiperidin-4-yl)urea]", "EC50": 0.025}, {"smiles": "COc1ccc(C[C@@H](NC(=O)N[C@H](CO)Cc2ccccc2)c2nc3ccccc3[nH]2)cc1", "note": "[Example 212, 1-((R)-1-(1H-Benzo[d]imidazol-2-yl)-2-(4-methoxyphenyl)ethyl)-3-((S)-1-hydroxy-3-phenylpropan-2-yl)urea]", "EC50": 0.0028}, {"smiles": "COc1ccc(C[C@@H](NC(=O)N2CCC3CN(C(=O)OC(C)(C)C)CC32)c2nc3ccccc3[nH]2)cc1", "note": "(stereo partly drawn) [Example 120, tert-Butyl 1-(((R)-1-(1H-benzo[d]imidazol-2-yl)-2-(4-methoxyphenyl)ethyl)carbamoyl)hexahydropyrrolo[3,4-b]pyrrole-5(1H)-carboxylate]", "EC50": 0.057}, {"smiles": "COc1ccc(C[C@@H](NC(=O)NCc2ccccc2CN(C)C)c2nc3ccccc3[nH]2)cc1", "note": "[Example 199, (R)-1-(1-(1H-Benzo[d]imidazol-2-yl)-2-(4-methoxyphenyl)ethyl)-3-(2-((dimethylamino)methyl)benzyl)urea]", "EC50": 0.081}, {"smiles": "CCC(NC(=O)N[C@H](Cc1ccc(OC)cc1)c1nc2ccccc2[nH]1)c1ccccc1", "note": "(stereo partly drawn) [Example 279, 1-((R)-1-(1H-Benzo[d]imidazol-2-yl)-2-(4-methoxyphenyl)ethyl)-3-(1-phenylpropyl)urea]", "EC50": 0.04}, {"smiles": "COc1ccc(C[C@@H](NC(=O)N[C@H]2CCCC[C@@H]2CO)c2nc3ccccc3[nH]2)cc1", "note": "(relative stereo) [Example 32, 1-((R)-1-(1H-Benzo[d]imidazol-2-yl)-2-(4-methoxyphenyl)ethyl)-3-((1 S*,2S*)-2-(hydroxymethyl)cyclohexyl)urea]", "EC50": 0.013}, {"smiles": "COc1ccc(C[C@@H](NC(=O)NCCC2CCNCC2)c2nc3ccccc3[nH]2)cc1", "note": "[Example 156, (R)-1-(1-(1H-Benzo[d]imidazol-2-yl)-2-(4-methoxyphenyl)ethyl)-3-(2-(piperidin-4-yl)ethyl)urea]", "EC50": 0.094}, {"smiles": "COc1ccc(C[C@@H](NC(=O)N[C@H](C)c2ccccc2OC)c2nc3ccccc3[nH]2)cc1", "note": "[Example 327, 1-((R)-1-(1H-Benzo[d]imidazol-2-yl)-2-(4-methoxyphenyl)ethyl)-3-((R)-1-(2-methoxyphenyl)ethyl)urea]", "EC50": 0.31}, {"smiles": "COc1ccc(C[C@@H](NC(=O)NC2(c3ccccc3Cl)CC2)c2nc3ccccc3[nH]2)cc1", "note": "[Example 389, (R)-1-(1-(1H-Benzo[d]imidazol-2-yl)-2-(4-methoxyphenyl)ethyl)-3-(1-(2-chlorophenyl)cyclopropyl)urea]", "EC50": 1.17}, {"smiles": "COc1ccc(C[C@@H](NC(=O)N[C@H]2CCCC[C@H]2CO)c2nc3ccccc3[nH]2)cc1", "note": "(relative stereo) [Example 34, 1-((R)-1-(1H-Benzo[d]imidazol-2-yl)-2-(4-methoxyphenyl)ethyl)-3-((1 S*,2R*)-2-(hydroxymethyl)cyclohexyl)urea]", "EC50": 0.042}, {"smiles": "O=C(NC(Cc1ccc(C(F)(F)F)cc1F)c1nc2ccccc2[nH]1)N[C@H]1CC[C@H](O)CC1", "note": "(single isomer, unassigned; ent-2) [Example 359, 1-(1-(1H-Benzo[d]imidazol-2-yl)-2-(2-fluoro-4-(trifluoromethyl)phenyl)ethyl)-3-(trans-4-hydroxycyclohexyl)urea (ent-2)]", "EC50": 0.019}, {"smiles": "COc1ccc(C[C@@H](NC(=O)NCC2CCNCC2)c2nc3ccccc3[nH]2)cc1", "note": "[Example 149, (R)-1-(1-(1H-Benzo[d]imidazol-2-yl)-2-(4-methoxyphenyl)ethyl)-3-(piperidin-4-ylmethyl)urea]", "EC50": 0.168}, {"smiles": "COc1ccc(CC(NC(=O)NCCN2CCCC2)c2nc3ccccc3[nH]2)cc1", "note": "(stereo not shown) [Example 391, 1-(1-(1H-Benzo[d]imidazol-2-yl)-2-(4-methoxyphenyl)ethyl)-3-(2-(pyrrolidin-1-yl)ethyl)urea]", "EC50": 2.72}, {"smiles": "COc1ccc(CC(NC(=O)N[C@H]2CC[C@](C)(O)CC2)c2nc3ccccc3[nH]2)cc1F", "note": "(relative stereo) [Example 226, 1-(1-(1H-Benzo[d]imidazol-2-yl)-2-(3-fluoro-4-methoxyphenyl)ethyl)-3-(trans-4-hydroxy-4-methylcyclohexyl)urea]", "EC50": 0.0066}]}]}
